Measurements published in patent publication US8846699B2, “Quinazoline derivatives as a multiplex inhibitor and method for the preparation thereof” (Hanmi Pharm. Co., Ltd., priority 2005, dated 2014).

Columns and labels:
[1] = system: skin cancer cell line, A431; assay: Inhibitory effect on growth of cancer cell line A431, SRB; type: cell-based; conditions: Homo sapiens, A-431, 72 h, overexpressed EGFR1 (HER-1)
Description: (§1) A skin cancer cell line, A431 (ATCC: CRL-1555), a breast cancer cell line, SK-Br3 (ATCC: HTB-30), and a colon and rectal cancer cell line, SW-620 (ATCC: CCL-227) were used to test the degrees of cancer cell growth inhibition using a culture medium, DEME (Dulbecco's Modified Eagle's Medium, JBI) including 4.5 g/l of glucose and 1.5 g/l of sodium bicarbonate and supplemented with 10% FBS (fetal bovine serum, JBI).
(§2) The cancer cell lines stored in a liquid nitrogen tank were each quickly thawed at 37° C., and centrifuged to remove the medium. The resulting cell pellet was mixed with a culture medium, incubated in a culture flask at 37° C. under 5% CO2 for 2 to 3 days, and the medium was removed. The remaining cells were washed with DPBS (Dulbecco's Phosphate Buffered Saline, JBI) and separated from the flask by using Trypsin-EDTA solution, and the separated cells were diluted with a culture medium to a concentration of 1.0×10^6 cells/ml in case of A431 and SW-620, and 2.0×10^6 cells/ml in case of SK-Br3. 100 μl of the diluted cell solution was added to each well of a 96-well plate, which was incubated at 37° C. under 5% CO2 for 1 day.
(§3) In case that the test compound was not soluble in DMSO, a small amount of 1% HCl was added thereto and treated in a 40° C. water bath for 30 mins until complete dissolution was attained. The test compound solution was diluted with a culture medium to a final concentration of 10 μM, and then diluted 10 times serially to 10^−4. The final concentration of DMSO was less than 1%, and the control compounds of Test Example 1 were used at a concentration of 0.0001 to 10 μM.
(§4) The medium was removed from each well of the 96-well microplate, 100 μl of a diluted test compound solution was added to each well holding cultured cells, and the microplate was incubated at 37° C. under 5% CO2 for 72 hours. After removing the medium from the plate, 50 μl of 10% trichloroacetic acid was added to each well, and the plate was kept at 37° C. for 1 hour to fix the cells to the bottom of the plate. 10% trichloroacetic acid was removed from each well, the plate was dried, 100 μl of an SRB (Sulforhodamine-B, Sigma) dye solution was added thereto, and reacted for 10 mins. The SRB dye solution was prepared by dissolving SRB in 1% acetic acid to a concentration of 0.4%. After removing the dye solution, the plate was washed with water, and dried. When the dye solution was not removed by water, 1% acetic acid was used.
(§5) 150 μl of 10 mM trisma base (Sigma) was added to each well, and the absorbance at 570 nm was determined with a microplate reader (Molecular device).

[2] = system: colon and rectal cancer cell line, SW-620; assay: Inhibitory effect on growth of cancer cell line SW-620, SRB; type: cell-based; conditions: Homo sapiens, 72 h, not having overexpressed EGFR and EGFR2
Description: as §1, §2, §3, §4, §5

VEGFR2 (KDR) = VEGFR2 (KDR) (Homo sapiens (Human), UniProt P35968); assay: VEGFR2 (KDR) enzyme assay, fluorescence polarization; type: biochemical; conditions: 5 μM ATP, poly(Glu, Tyr) substrate
Protocol: VEGFR2 (KDR, Proquinase) enzyme assay (auto-phosphorylation assay) was carried out by using Tyrosine Kinase Assay Kit Green (Panvera). The entire assay was conducted in accordance with VEGFR PTK inhibitor cellular activity test S.O.P.
A typical kinase inhibition reaction requires a protein tyrosine kinase, a suitable buffer solution system, a peptide substrate and ATP. In the present VEGFR tyrosine kinase assay, a buffer solution system containing 20 mM HEPES (pH 7.4), 5 mM MgCl2 and 2 mM MnCl2; 50 μM Na3VO4; 200 ng/10 μl VEGFR (Proquinase); 5 μM ATP; and 10 ng/ml poly(Glu, Tyr) (4:1, Sigma) as a substrate were used.
The compounds of Test Example 1 were used as control compounds at a concentration of 0.0001 to 10 μM. After 10 min, 10 μl of poly(Glu, Tyr) as a substrate was added to each well, and 10 μl of ATP was added thereto to initiate kinase reaction. The plate was incubated at room temperature for 1 hour, and 10 μl of 100 mM EDTA was added to each well to terminate the kinase reaction.
The added EDTA was mixed for 5 min. Thereafter, 10 μl of 10× anti-phosphotyrosine antibody (Panvera), 10 μl of 10×PTK Green Tracer (Panvera) and 30 μl of FP dilution buffer (Panvera) were added thereto, and the plate was incubated in a dark room at room temperature for 30 min.

[3] = system: Human Umbilical Vein Endothelial Cell (HUVEC); assay: Inhibitory effect on growth of human umbilical vein endothelial cell (HUVEC), MTS; type: cell-based; conditions: Homo sapiens, 96 h, 10 ng/ml VEGF, absorbance 490 nm
Protocol: HUVECs (Young Science, Inc) were suspended in a culture medium, EBM-2 (Endothelial Basic Media, Cambrex) supplemented with 2% bovine serum (Cambrex) and auxiliary additives for HUVEC culture (e.g., EGF, VEGF, FGF, etc., Cambrex), inoculated into a culture flask coated with 1% gelatin, and incubated in an incubator at 37° C. under 5% CO2 and 100% humidity.
100 μl of 5% bovine serum medium containing 10 ng/ml of vascular endothelial growth factor (VEGF) and auxiliary additives, while excluding other growth factors was added to each well of a 96-well plate. […] DMSO (Dimethylsulfoxide) was used to dissolve the test compounds, and the final concentration of DMSO was less than 1%.
100 μl of the diluted cell solution was added to each well of the 96-well plate, which was incubated in an incubator for 96 hours.
Then, 20 μl of MTS ([…], Promega) solution was added to each well of the plate, and the plate was incubated in an incubator for 4 hours to induce discoloration. After 4 hours, the pellets were dissolved by way of a thorough shaking, and the absorbance at 490 nm was determined.

EGFR1 (HER-1) = EGFR1 (HER-1) (Homo sapiens (Human), UniProt P00533); assay: EGFR1 (HER-1) enzyme assay, fluorescence polarization; type: biochemical; conditions: 100 μM ATP, poly(Glu, Tyr) substrate
[4] = system: breast cancer cell line, SK-Br3; assay: Inhibitory effect on growth of cancer cell line SK-Br3, SRB; type: cell-based; conditions: Homo sapiens, SK-BR-3, 72 h, overexpressed EGFR2 (HER-2)
Description: as §1, §2, §3, §4, §5

Chain of VEGFR2 (KDR) (P35968 20-1356): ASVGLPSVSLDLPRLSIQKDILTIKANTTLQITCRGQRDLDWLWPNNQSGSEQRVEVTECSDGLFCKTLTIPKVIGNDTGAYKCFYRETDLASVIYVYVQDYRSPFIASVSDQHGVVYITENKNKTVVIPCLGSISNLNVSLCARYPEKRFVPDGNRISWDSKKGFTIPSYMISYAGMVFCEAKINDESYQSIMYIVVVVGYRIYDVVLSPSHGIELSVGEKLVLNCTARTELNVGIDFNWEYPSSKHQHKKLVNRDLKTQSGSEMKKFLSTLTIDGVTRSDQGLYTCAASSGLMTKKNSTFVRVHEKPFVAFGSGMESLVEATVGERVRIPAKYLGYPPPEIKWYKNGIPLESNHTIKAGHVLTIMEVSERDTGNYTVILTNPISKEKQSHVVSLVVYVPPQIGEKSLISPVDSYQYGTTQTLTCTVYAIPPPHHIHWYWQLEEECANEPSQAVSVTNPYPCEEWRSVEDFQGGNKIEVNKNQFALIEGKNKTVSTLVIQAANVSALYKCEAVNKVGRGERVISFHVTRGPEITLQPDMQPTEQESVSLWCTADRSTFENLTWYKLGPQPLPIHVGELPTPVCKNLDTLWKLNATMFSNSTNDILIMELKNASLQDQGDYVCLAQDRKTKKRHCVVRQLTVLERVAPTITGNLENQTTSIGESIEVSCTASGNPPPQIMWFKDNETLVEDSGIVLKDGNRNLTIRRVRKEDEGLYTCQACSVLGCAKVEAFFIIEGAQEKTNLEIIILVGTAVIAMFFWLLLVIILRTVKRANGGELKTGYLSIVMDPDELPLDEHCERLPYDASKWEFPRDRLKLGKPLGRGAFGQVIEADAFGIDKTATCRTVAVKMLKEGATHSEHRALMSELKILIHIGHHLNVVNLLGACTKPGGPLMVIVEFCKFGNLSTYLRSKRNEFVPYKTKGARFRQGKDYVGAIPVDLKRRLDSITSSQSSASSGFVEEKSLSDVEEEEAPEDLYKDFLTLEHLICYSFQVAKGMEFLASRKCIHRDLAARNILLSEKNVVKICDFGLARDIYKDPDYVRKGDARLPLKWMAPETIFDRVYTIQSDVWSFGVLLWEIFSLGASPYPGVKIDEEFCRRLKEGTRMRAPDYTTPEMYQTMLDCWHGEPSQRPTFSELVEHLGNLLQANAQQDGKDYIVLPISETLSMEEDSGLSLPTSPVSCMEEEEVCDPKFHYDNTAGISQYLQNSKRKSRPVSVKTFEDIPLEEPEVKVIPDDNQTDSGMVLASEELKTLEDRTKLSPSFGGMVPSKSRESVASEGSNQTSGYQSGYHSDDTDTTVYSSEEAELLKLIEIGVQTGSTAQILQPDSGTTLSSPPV
Chain of EGFR1 (HER-1) (P00533 25-1210): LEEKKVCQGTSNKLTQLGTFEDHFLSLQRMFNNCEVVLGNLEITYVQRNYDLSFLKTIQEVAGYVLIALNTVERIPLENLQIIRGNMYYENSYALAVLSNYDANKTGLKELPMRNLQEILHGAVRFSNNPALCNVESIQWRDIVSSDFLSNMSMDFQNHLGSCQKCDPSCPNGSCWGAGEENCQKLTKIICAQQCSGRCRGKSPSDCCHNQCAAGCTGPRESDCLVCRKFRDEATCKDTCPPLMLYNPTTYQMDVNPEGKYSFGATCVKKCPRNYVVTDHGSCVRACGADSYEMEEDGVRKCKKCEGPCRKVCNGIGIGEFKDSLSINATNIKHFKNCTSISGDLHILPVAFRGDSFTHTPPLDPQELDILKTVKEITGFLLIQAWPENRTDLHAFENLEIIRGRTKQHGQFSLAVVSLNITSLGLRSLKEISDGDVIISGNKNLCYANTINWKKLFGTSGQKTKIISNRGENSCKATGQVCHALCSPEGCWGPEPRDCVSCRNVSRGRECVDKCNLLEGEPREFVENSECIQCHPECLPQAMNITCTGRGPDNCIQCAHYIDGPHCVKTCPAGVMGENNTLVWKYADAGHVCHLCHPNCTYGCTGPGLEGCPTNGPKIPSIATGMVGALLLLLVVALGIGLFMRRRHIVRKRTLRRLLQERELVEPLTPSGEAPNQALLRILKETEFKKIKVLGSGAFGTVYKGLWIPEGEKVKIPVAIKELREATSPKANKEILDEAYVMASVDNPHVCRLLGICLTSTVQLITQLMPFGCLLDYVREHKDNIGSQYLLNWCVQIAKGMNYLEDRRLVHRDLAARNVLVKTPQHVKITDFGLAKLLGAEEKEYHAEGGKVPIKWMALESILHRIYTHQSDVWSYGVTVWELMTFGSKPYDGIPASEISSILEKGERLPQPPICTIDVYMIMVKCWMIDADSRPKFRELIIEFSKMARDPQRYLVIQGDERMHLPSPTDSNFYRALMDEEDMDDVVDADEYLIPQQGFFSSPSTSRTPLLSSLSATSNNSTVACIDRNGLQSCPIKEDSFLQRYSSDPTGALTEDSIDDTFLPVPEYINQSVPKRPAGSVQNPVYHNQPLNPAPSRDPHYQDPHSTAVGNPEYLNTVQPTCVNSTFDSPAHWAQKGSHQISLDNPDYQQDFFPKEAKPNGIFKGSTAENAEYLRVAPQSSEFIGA

SMILES	IC50 [1] [nM]	IC50 [2] [nM]	IC50 (VEGFR2 (KDR)) [nM]	IC50 [3] [nM]	IC50 (EGFR1 (HER-1)) [nM]	IC50 [4] [nM]
C=CC(=O)Nc1cc2c(Nc3ccc(Br)cc3F)ncnc2cc1OCC1CCN(C(N)=O)CC1 [Example 4, 4-[6-acryloylamino-4-(4-bromo-2-fluoro-phenylamino)-quinazolin-7-yloxymethyl]-piperidin-1-carboxylic acid amide]	25	5680	136	87	15	147
C=CC(=O)Nc1cc2c(Nc3ccc(Br)cc3F)ncnc2cc1OCC1CCN(C(=O)C=C)CC1 [Example 5, N-[7-(1-acryloyl-piperidin-4-ylmethoxy)-4-(4-bromo-2-fluoro-phenylamino)-quinazolin-6-yl]-acrylamide]	37	2350	203	34	3	241
C=CC(=O)Nc1cc2c(Nc3ccc(Br)cc3F)ncnc2cc1OCc1ccncc1 [Example 6, N-[4-(4-bromo-2-fluoro-phenylamino)-7-(pyridin-4-ylmethoxy)-quinazolin-6-yl]-acrylamide]	168	8460	500	450	56	1350
C=CC(=O)Nc1cc2c(Nc3ccc(F)c(F)c3F)ncnc2cc1OCC1CCN(C(C)=O)CC1 [Example 7, N-[7-(1-acetyl-piperidin-4-ylmethoxy)-4-(2,3,4-trifluoro-phenylamino)-quinazolin-6-yl]-acrylamide]	38	9570	250	99	26	67
C=CC(=O)Nc1cc2c(Nc3c(F)cc(Br)cc3F)ncnc2cc1OCC1CCN(C(C)=O)CC1 [Example 8, N-[7-(1-acetyl-piperidin-4-ylmethoxy)-4-(4-bromo-2,6-difluoro-phenylamino)-quinazolin-6-yl]-acrylamide]	20	2530	148	98	13	149
C=CC(=O)Nc1cc2c(Nc3ccc(Br)cc3F)ncnc2cc1OCC1CCN(C(=O)NCCC)CC1 [Example 9, 4-[6-acryloylamino-4-(4-bromo-2-fluoro-phenylamino)-quinazolin-7-yloxymethyl]-piperidin-1-carboxylic acid propylamide]	51	2580	45	48	36	266
C=CC(=O)Nc1cc2c(Nc3ccc(Br)cc3F)ncnc2cc1OCC1CCN(C(=O)CN(C)C)CC1 [Example 10, N-{4-(4-bromo-2-fluoro-phenylamino)-7-[1-(2-dimethylamino-acetyl)-piperidin-4-ylmethoxy]-quinazolin-6-yl}-acrylamide]	8	2760	55	49	6	330
C=CC(=O)Nc1cc2c(Nc3ccc(Br)cc3F)ncnc2cc1OCC1CCN(C(=O)NC(C)(C)C)CC1 [Example 11, 4-[6-acryloylamino-4-(4-bromo-2-fluoro-phenylamino)-quinazolin-7-yloxymethyl]-piperidin-1-carboxylic acid t-butylamide]	59	5680	50	41	14	456
C=CC(=O)Nc1cc2c(Nc3ccc(Br)cc3F)ncnc2cc1OCCCNC(=O)CN(C)C [Example 12, N-{4-(4-bromo-2-fluoro-phenylamino)-7-[3-(2-dimethylamino-acetylamino)-propoxy]-quinazolin-6-yl}-acrylamide]	17	2500	347	156	2	157
